Data on 52 molecules can be found in ChEMBL document CHEMBL6120938, “Covalent small-molecule inhibitors of SARS-CoV-2 Mpro: Insights into their design, classification, biological activity, and binding interactions” (Eur J Med Chem, 2024).

pEC50, pIC50: −log10 of the molar value.

The first assay has as its target T1, Replicase polyprotein 1ab (Severe acute respiratory syndrome coronavirus 2, UniProt P0DTD1). Put plainly: Inhibition of SARS-CoV-2 3CL protease.
Details: not given
One may read the pIC50 as the negative decadic logarithm of the IC50, by convention in mol/L. `C=CS(=O)(=O)N(c1ccc(C(C)(C)C)cc1)C(C(=O)NCCc1cccc(OC)c1)c1cccnc1` (centres undefined) had a pIC50 of 6.62.
Consider `CC(C)C[C@H](NC(=O)OCC1CCC(F)(F)CC1)C(=O)N[C@@H](C[C@@H]1CCNC1=O)C(O)S(=O)(=O)O` (some centres undefined), for which the pIC50 is 7.00.
Same read-out and setting: then `C=CS(=O)(=O)N(c1ccc(C(C)(C)C)cc1)C(C(=O)NCCc1cccc(Cl)c1)c1cccnc1` (centres undefined), with 9.77.
Regarding `S=C(S)NCc1cccnc1`, the pIC50 was 7.52.
For the molecule `CC(C)C[C@H](NC(=O)OC[C@@H]1C[C@H]1C1CCCCC1)C(=O)N[C@@H](C[C@H]1CCNC1=O)[C@H](O)S(=O)(=O)O`, the pIC50 was 6.55.
`CCC1CCC(OC(=O)N[C@@H](CC(C)C)C(=O)N[C@H](C=O)C[C@@H]2CCNC2=O)CC1` (some centres undefined) showed a pIC50 of 5.96.
The molecule `CCC1(OC(=O)N[C@@H](CC(C)C)C(=O)N[C@H](C=O)C[C@@H]2CCNC2=O)COCOC1` gave a pIC50 of 6.35.

System in another assay: not listed separately
Put plainly: Inhibition of SARS-CoV-2 Main protease. Also on record: species or system Severe acute respiratory syndrome coronavirus 2.
Details: not given
On to `O=C(Oc1cncc(Cl)c1)c1cccs1`, for which the pIC50 is 7.09.
Same read-out and setting: next, `O=C[C@H](C[C@@H]1CCNC1=O)NC(=O)[C@H](CC1CC1)NC(=O)OCc1ccccc1`: 6.89; `COc1cccc2[nH]c(C(=O)N[C@@H](CC(C)C)C(=O)N[C@H](C=O)C[C@@H]3CCNC3=O)cc12`: 6.89; `CC(C)C[C@H](NC(=O)O[C@@H](C)c1ccccc1)C(=O)N[C@H](C=O)C[C@@H]1CCNC1=O`: 6.89.
In turn, `O=C[C@H](C[C@@H]1CCNC1=O)NC(=O)[C@H](CC1CC1)NC(=O)OCc1cccc(F)c1` showed a pIC50 of 7.85.
Consider `CC(C)C[C@H](NC(=O)OCc1cccc(F)c1)C(=O)N[C@H](C=O)C[C@@H]1CCNC1=O`, for which the pIC50 is 6.89.
In turn, `C=CC(=O)N(c1ccc(C(C)(C)C)cc1)C(C(=O)NC(C)(C)C)c1cccnc1` (centres undefined) showed a pIC50 of 5.53.
Still for that read-out and setting: then `CC(C)C[C@H](NC(=O)[C@@H](NC(=O)C1CCCCC1)C(C)C)C(=O)N[C@H](C=O)C[C@@H]1CCCNC1=O`, with 6.62; and `COc1cc(O)c2c(c1)O[C@H](c1cc(O)c(O)c(O)c1)[C@@H](O)C2=O`, with 6.59.
On to `COc1cc(O)c2c(=O)c(O)c(-c3cc(O)c(O)c(O)c3)oc2c1`, for which the pIC50 is 6.52.
The same measure, in the same setting: next, `COc1cccc2[nH]c(C(=O)N3C[C@H]4[C@@H]([C@H]3C(=O)N[C@@H](C[C@@H]3CCNC3=O)C(=O)c3nc5ccccc5s3)C4(C)C)cc12`: 7.26.
As for `CCOC(=O)/C=C/[C@H](C[C@@H]1CCNC1=O)NC(=O)[C@@H](CC(=O)[C@@H](NC(=O)OCc1ccccc1)[C@H](C)OC(C)(C)C)CC(C)O` (some centres undefined), the pIC50 was 6.82.
The molecule `CCCCC1CCC(OC(=O)N[C@@H](CC(C)C)C(=O)N[C@H](C=O)C[C@H]2CCNC2=O)CC1` (some centres undefined) gave a pIC50 of 6.89.
On the same count and under the same terms, next, `C=CC(=O)N(c1ccc(C(C)(C)C)cc1)C(C(=O)NC)c1cccnc1` (centres undefined): 5.54; `CC(C)C[C@H](NC(=O)OC(c1ccccc1)C1CCC(F)(F)CC1)C(=O)N[C@H](C=O)C[C@H]1CCNC1=O` (some centres undefined): 6.89; `CC(C)C[C@H](NC(=O)OC(C)(C)C1CCC(F)(F)CC1)C(=O)N[C@@H](C[C@H]1CCNC1=O)C(O)S(=O)(=O)O` (some centres undefined): 6.90.
`C=CC(=O)N(c1ccc(C(C)(C)C)cc1)C(C(=O)NCCSC)c1cccnc1` (centres undefined) gave a pIC50 of 5.54.
On to `[2H]c1c([2H])c([2H])c(COC(C)N[C@@H](CC(C)C)C(=O)N[C@H](C=O)C[C@@H]2CCNC2=O)c([2H])c1[2H]` (some centres undefined), for which the pIC50 was 6.80.
With `C=CC(=O)N(c1ccc(C(C)(C)C)cc1)C(C(=O)NCc1ccccc1)c1cccnc1` (centres undefined), the pIC50 was 5.54.
Turning to `C=CC(=O)N(c1ccc(C(C)(C)C)cc1)C(C(=O)NCCc1cccc(F)c1)c1cccnc1` (centres undefined), the pIC50 is 5.54.
With `C=CC(=O)N(c1ccc(C(C)(C)C)cc1)C(C(=O)NCCOC)c1cccnc1` (centres undefined), the pIC50 is 5.54.
`CCCCCCNC(=O)n1cc(F)c(=O)[nH]c1=O` [CARMOFUR] showed a pIC50 of 7.74.
Regarding `COc1cccc2[nH]c(C(=O)N[C@@H](CC(C)C)C(=O)N[C@@H](C[C@@H]3CCNC3=O)C(=O)COP(=O)(O)O)cc12` [LUFOTRELVIR], the pIC50 is 8.05.
Molecule `COc1cccc2[nH]c(C(=O)N[C@@H](CC(C)C)C(=O)N[C@@H](C[C@@H]3CCNC3=O)C(=O)CO)cc12` [PF-00835231] showed a pIC50 of 6.22.

The next assay deals with T1, Replicase polyprotein 1ab. Kind of assay: Inhibition of SARS-CoV-2 3CL protease by luciferase reporter assay.
Details: not given
Take `O=C(CCl)Nc1sc(-c2ccccc2)cc1C(=O)NC1CC1`: the pIC50 was 5.63.
Turning to `C=CC(=O)O[C@H](C(=O)NCc1cccc(OC)c1OC)c1ccc([N+](=O)[O-])cc1`, the pIC50 was 5.03.
The molecule `C=CC(=O)O[C@H](CC)C(=O)NCCc1c[nH]c2ccccc12` gave a pIC50 of 3.86.

The target of a further assay is T1, Replicase polyprotein 1ab. Kind of assay: Inhibition of SARS-CoV-2 3CL protease using DabcylKTSAVLQSGFRKME-Edans amide as substrate measured for 1 hrs by FRET assay.
Details: not given
The molecule `CC(C)C[C@H](NC(=O)OC[C@@H]1C[C@H]1c1cccc(F)c1)C(=O)N[C@H](C=O)CC1CCNC1=O` (some centres undefined) gave a pIC50 of 6.85.
In turn, `CC(C)C[C@H](NC(=O)OC[C@@H]1C[C@H]1c1cccc(F)c1)C(=O)N[C@@H](CC1CCNC1=O)C(O)S(=O)(=O)O` (some centres undefined) had a pIC50 of 6.85.
Regarding `COc1ccccc1[C@@H]1C[C@H]1COC(=O)N[C@@H](CC(C)C)C(=O)N[C@H](C=O)CC1CCNC1=O` (some centres undefined), the pIC50 is 6.85.
Same read-out and setting: next, `COc1ccccc1[C@@H]1C[C@H]1COC(=O)N[C@@H](CC(C)C)C(=O)N[C@@H](CC1CCNC1=O)C(O)S(=O)(=O)O` (some centres undefined): 6.85.

System in the next assay: not listed separately
Put plainly: Inhibition of SARS-CoV-2 Main protease using DABCYL-KTSAVLQ-SGFRKM-E(EDANS) as substrate pre-treated for 15 mins and measured for 60 mins by FRET assay. On the set-up: species or system Severe acute respiratory syndrome coronavirus 2.
Details: not given
For the molecule `O=Cc1ncc(Br)cc1OCc1ccc(Cl)c(Br)c1`, the pIC50 was 5.22.
Turning to `O=Cc1ncc(Br)cc1OCc1ccc2ccccc2c1`, the pIC50 was 4.59.
Still for that read-out and setting: then `Cc1ccc(COc2cc(Br)cnc2C=O)cc1[N+](=O)[O-]`, with 4.92; and `O=Cc1ncc(Br)cc1OCc1ccc(Cl)c([N+](=O)[O-])c1`, with 6.00; and `O=Cc1ncc(Br)cc1OCc1cc(Br)ccc1Cl`, with 5.22.

For a further assay, the target named is T1, Replicase polyprotein 1ab. Kind of assay: Inhibition of N-terminal 6His-tagged SARS-CoV-2 3CL protease using FAM-SAVLQ as substrate pre-incubated for 15 mins followed by substrate addition and incubated for 30 mins by FRET analysis.
Details: not given
Consider `CC(C)C[C@H](NC(=O)OC[C@@H]1C[C@H]1C1CCCCC1)C(=O)N[C@@H](C[C@H]1CCNC1=O)[C@H](O)S(=O)(=O)O`, for which the pIC50 is 6.77.
Turning to `COc1ccc([C@@H]2C[C@H]2COC(=O)N[C@@H](CC(C)C)C(=O)N[C@@H](C[C@H]2CCNC2=O)[C@@H](O)S(=O)(=O)O)cc1`, the pIC50 was 6.77.
The same measure, in the same setting: next, `CC(C)C[C@H](NC(=O)OC[C@@H]1C[C@H]1C1CCC(F)(F)CC1)C(=O)N[C@@H](C[C@H]1CCNC1=O)[C@H](O)S(=O)(=O)O`: 6.77; `CC(C)C[C@H](NC(=O)OC[C@@H]1C[C@H]1c1ccccc1)C(=O)N[C@H](C=O)C[C@H]1CCNC1=O`: 6.77.
For the molecule `CCC[C@@H]1C[C@H]1COC(=O)N[C@@H](CC(C)C)C(=O)N[C@@H](C[C@H]1CCNC1=O)[C@@H](O)S(=O)(=O)O`, the pIC50 is 6.77.
For `CC(C)C[C@H](NC(=O)OC[C@@H]1C[C@H]1c1cccc(Cl)c1)C(=O)N[C@H](C=O)C[C@H]1CCNC1=O`, the pIC50 is 6.77.

System in another assay: not listed separately
Put plainly: Inhibition of MERS-CoV 3CLpro by FRET assay.
Details: not given
Also on record: species or system Middle East respiratory syndrome-related coronavirus.
As to `CC(C)C[C@H](NC(=O)OC[C@@H]1C[C@H]1c1cccc(F)c1)C(=O)N[C@H](C=O)CC1CCNC1=O` (some centres undefined), the pIC50 is 7.15.
The same measure, in the same setting: next, `CC(C)C[C@H](NC(=O)OC[C@@H]1C[C@H]1c1cccc(F)c1)C(=O)N[C@@H](CC1CCNC1=O)C(O)S(=O)(=O)O` (some centres undefined): 7.15; `COc1ccccc1[C@@H]1C[C@H]1COC(=O)N[C@@H](CC(C)C)C(=O)N[C@H](C=O)CC1CCNC1=O` (some centres undefined): 7.15.
`COc1ccccc1[C@@H]1C[C@H]1COC(=O)N[C@@H](CC(C)C)C(=O)N[C@@H](CC1CCNC1=O)C(O)S(=O)(=O)O` (some centres undefined) showed a pIC50 of 7.15.

In a further assay the test system is SARS-CoV-2. Kind of assay: Antiviral activity against SARS-CoV-2 infected in Vero E6 cells assessed as reduction in viral replication. The conditions noted are these: Severe acute respiratory syndrome coronavirus 2, Vero C1008. In kind it is functional, organism-based.
As a reminder, the pEC50 is the negative decadic logarithm of the EC50, by convention in mol/L. Consider `O=C1c2ccccc2CCC1CNCCc1ccc(O)cc1` (centres undefined), for which the pEC50 is 4.62.
In the case of `O=C[C@H](C[C@@H]1CCNC1=O)NC(=O)[C@@H]1[C@H]2CCC[C@H]2CN1C(=O)CCc1ccc(Cl)cc1Cl`, the pEC50 was 6.27.
On to `Cc1cc(C(=O)N[C@@H](C)C(=O)N[C@H](C(=O)N[C@@H](CC(C)C)[C@H](/C=C/C(=O)OCc2ccccc2)C[C@@H]2CCNC2=O)C(C)C)no1`, for which the pEC50 is 4.78.
For the molecule `Cc1ccc(C(=O)C(C)CN2CCCCC2)cc1` (centres undefined) [TOLPERISONE], the pEC50 was 4.72.

The next assay deals with SARS-CoV-2. Put plainly: Antiviral activity against SARS-CoV-2 infected in Vero E6 cells assessed as inhibition of viral replication. Format: functional, organism-based. The conditions noted are these: Severe acute respiratory syndrome coronavirus 2, Vero C1008.
On to `COc1cc(O)c2c(c1)O[C@H](c1cc(O)c(O)c(O)c1)[C@@H](O)C2=O`, for which the pEC50 is 5.10.
`COc1cc(O)c2c(=O)c(O)c(-c3cc(O)c(O)c(O)c3)oc2c1`: the pEC50 was 5.10.
